Source: ChEMBL document CHEMBL4130445, “TNF-α and IL-6 inhibitors: Conjugates of N-substituted indole and aminophenylmorpholin-3-one as anti-inflammatory agents” (Eur J Med Chem, 2017)
The source made the active and inactive calls. No cut-off for these calls is given here.

How the values were obtained:
BV-2 [1] = assay: Cytotoxicity in mouse BV2 cells assessed as reduction in cell viability incubated for 48 hrs by MTT assay; type: cell-based; conditions: BV-2, 48 h
BV-2 [2] = assay: Suppression of LPS-induced morphological changes in mouse BV2 cells at 5 uM pre-incubated before LPS stimulation by phase contrast microscopy; type: functional, cell-based
BV-2 [3] = assay: Suppression of LPS-induced morphological changes in mouse BV2 cells at 10 uM pre-incubated before LPS stimulation by phase contrast microscopy; type: functional, cell-based
[4] = biological target: T1, Prostaglandin G/H synthase 2 (Homo sapiens) (UniProt P35354); assay: Inhibition of COX2 (unknown origin) by immunoassay
T1 sequence (whole entry): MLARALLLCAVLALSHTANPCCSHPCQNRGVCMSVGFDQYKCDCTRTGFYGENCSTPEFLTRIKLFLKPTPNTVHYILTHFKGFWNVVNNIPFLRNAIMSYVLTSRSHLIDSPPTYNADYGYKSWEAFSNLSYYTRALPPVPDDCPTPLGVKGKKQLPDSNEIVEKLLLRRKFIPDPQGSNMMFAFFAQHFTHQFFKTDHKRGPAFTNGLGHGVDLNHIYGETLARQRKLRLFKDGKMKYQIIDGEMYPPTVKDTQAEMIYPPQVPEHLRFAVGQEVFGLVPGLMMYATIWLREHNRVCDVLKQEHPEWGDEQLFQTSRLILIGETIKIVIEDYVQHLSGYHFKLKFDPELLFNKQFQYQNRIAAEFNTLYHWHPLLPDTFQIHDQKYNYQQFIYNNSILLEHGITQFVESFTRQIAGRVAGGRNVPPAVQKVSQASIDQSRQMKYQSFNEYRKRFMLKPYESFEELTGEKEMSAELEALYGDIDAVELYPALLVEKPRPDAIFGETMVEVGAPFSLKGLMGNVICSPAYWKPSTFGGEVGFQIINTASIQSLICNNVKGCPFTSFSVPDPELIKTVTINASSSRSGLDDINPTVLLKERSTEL

BV-2 [5] = assay: Inhibition of LPS-induced TNFalpha production in mouse BV2 cells at 10 uM pre-incubated before LPS stimulation by ELISA; type: functional
BV-2 [6] = assay: Inhibition of LPS-induced TNFalpha production in mouse BV2 cells at 20 uM pre-incubated before LPS stimulation by ELISA; type: functional
BV-2 [7] = assay: Inhibition of LPS-induced IL6 production in mouse BV2 cells at 10 uM pre-incubated before LPS stimulation by ELISA; type: functional
BV-2 [8] = assay: Inhibition of LPS-induced IL6 production in mouse BV2 cells at 20 uM pre-incubated before LPS stimulation by ELISA; type: functional
Mus musculus [9] = assay: Analgesic activity in Swiss albino mouse model of acetic acid induced writhing assessed as inhibition of pain response at 10 mg/kg, ip dosed 30 mins before acetic acid injection; type: functional
[10] = Cytotoxicity in mouse BV2 cells assessed as cell viability at 0.5 uM incubated for 48 hrs by MTT assay (reference value: 100%); type: cell-based, BV-2; conditions: read-out: Activity
[11] = Cytotoxicity in mouse BV2 cells assessed as cell viability at 1 uM incubated for 48 hrs by MTT assay (reference value: 100%); type: cell-based, BV-2; conditions: read-out: Activity
[12] = Cytotoxicity in mouse BV2 cells assessed as cell viability at 5 uM incubated for 48 hrs by MTT assay (reference value: 100%); type: cell-based, BV-2; conditions: read-out: Activity
[13] = Cytotoxicity in mouse BV2 cells assessed as cell viability at 10 uM incubated for 48 hrs by MTT assay (reference value: 100%); type: cell-based, BV-2; conditions: read-out: Activity
[14] = Cytotoxicity in mouse BV2 cells assessed as cell viability at 15 uM incubated for 48 hrs by MTT assay (reference value: 100%); type: cell-based, BV-2; conditions: read-out: Activity
[15] = Cytotoxicity in mouse BV2 cells assessed as cell viability at 20 uM incubated for 48 hrs by MTT assay (reference value: 100%); type: cell-based, BV-2; conditions: read-out: Activity
[16] = Cytotoxicity in mouse BV2 cells assessed as cell viability at 40 uM incubated for 48 hrs by MTT assay (reference value: 100%); type: cell-based, BV-2; conditions: read-out: Activity
[17] = Cytotoxicity in mouse BV2 cells assessed as cell viability at 60 uM incubated for 48 hrs by MTT assay (reference value: 100%); type: cell-based, BV-2; conditions: read-out: Activity
[18] = Cytotoxicity in mouse BV2 cells assessed as cell viability at 80 uM incubated for 48 hrs by MTT assay (reference value: 100%); type: cell-based, BV-2; conditions: read-out: Activity
[19] = Cytotoxicity in mouse BV2 cells assessed as cell viability at 100 uM incubated for 48 hrs by MTT assay (reference value: 100%); type: cell-based, BV-2; conditions: read-out: Activity
BV-2 [20] = assay: Inhibition of LPS-induced nitric oxide production in mouse BV2 cells assessed as nitric oxide level at 10 uM pre-incubated before LPS stimulation by Griess reagent based assay (reference value: 121.09%); type: functional; design: scale not given: the % may be the effect or the level left
BV-2 [21] = assay: Inhibition of LPS-induced nitric oxide production in mouse BV2 cells assessed as nitric oxide level at 20 uM pre-incubated before LPS stimulation by Griess reagent based assay (reference value: 121.09%); type: functional; design: scale not given: the % may be the effect or the level left
BV-2 [22] = assay: Inhibition of LPS-induced TNFalpha production in mouse BV2 cells assessed as TNFalpha level at 10 uM pre-incubated before LPS stimulation by ELISA (reference value: 142.71%); type: functional; design: scale not given: the % may be the effect or the level left
BV-2 [23] = assay: Inhibition of LPS-induced TNFalpha production in mouse BV2 cells assessed as TNFalpha level at 20 uM pre-incubated before LPS stimulation by ELISA (reference value: 142.71%); type: functional; design: scale not given: the % may be the effect or the level left
BV-2 [24] = assay: Inhibition of LPS-induced IL6 production in mouse BV2 cells assessed as IL6 level at 10 uM pre-incubated before LPS stimulation by ELISA (reference value: 146.75%); type: functional; design: scale not given: the % may be the effect or the level left
BV-2 [25] = assay: Inhibition of LPS-induced IL6 production in mouse BV2 cells assessed as IL6 level at 20 uM pre-incubated before LPS stimulation by ELISA (reference value: 146.75%); type: functional; design: scale not given: the % may be the effect or the level left
Mus musculus [26] = species: Mus musculus; assay: Inhibition of LPS-induced NFkappaB nuclear translocation in mouse BV2 cells pre-incubated before LPS stimulation by immunostaining based confocal laser microscopy; type: cell-based
[27] = biological target: Transcription factor Jun (Mus musculus) (UniProt P05627); assay: Inhibition of LPS-induced AP1 nuclear translocation in mouse BV2 cells pre-incubated before LPS stimulation by immunostaining based confocal laser microscopy; type: cell-based
Chain of Transcription factor Jun (Mus musculus) (P05627 whole entry): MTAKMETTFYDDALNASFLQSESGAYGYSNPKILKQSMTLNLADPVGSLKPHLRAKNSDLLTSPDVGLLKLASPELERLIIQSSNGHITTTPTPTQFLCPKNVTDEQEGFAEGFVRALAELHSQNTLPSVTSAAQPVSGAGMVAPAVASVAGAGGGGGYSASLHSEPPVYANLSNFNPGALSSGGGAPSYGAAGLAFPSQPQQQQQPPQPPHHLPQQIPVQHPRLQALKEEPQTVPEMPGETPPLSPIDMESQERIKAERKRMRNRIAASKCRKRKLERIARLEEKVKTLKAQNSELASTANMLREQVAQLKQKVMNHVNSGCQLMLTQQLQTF

BV-2 [28] = assay: Inhibition of LPS-induced MMP9 production production in mouse BV2 cells assessed as MMP9 protein level pre-incubated before LPS stimulation by gelatin zymography (reference value: 105.113%); type: functional; design: scale not given: the % may be the effect or the level left
BV-2 [29] = assay: Inhibition of LPS-induced MMP2 production production in mouse BV2 cells assessed as MMP2 protein level pre-incubated before LPS stimulation by gelatin zymography (reference value: 105.071%); type: functional; design: scale not given: the % may be the effect or the level left
BV-2 [30] = assay: Inhibition of LPS-induced MMP9 production production in mouse BV2 cells pre-incubated before LPS stimulation by gelatin zymography; type: functional, cell-based
BV-2 [31] = assay: Inhibition of LPS-induced MMP2 production production in mouse BV2 cells pre-incubated before LPS stimulation by gelatin zymography; type: functional, cell-based

| SMILES | IC50 (BV-2 [1]) [µM] | Activity (BV-2 [2]) | Activity (BV-2 [3]) | inhibition [4] | viability at 48 h, 0.5 µM [10] [%] | viability at 48 h, 1 µM [11] [%] | viability at 48 h, 5 µM [12] [%] | viability at 48 h, 10 µM [13] [%] | viability at 48 h, 15 µM [14] [%] | viability at 48 h, 20 µM [15] [%] | viability at 48 h, 40 µM [16] [%] | viability at 48 h, 60 µM [17] [%] | viability at 48 h, 80 µM [18] [%] | viability at 48 h, 100 µM [19] [%] | Activity (BV-2 [20]) [%] | Activity (BV-2 [21]) [%] | Activity (BV-2 [22]) [%] | Activity (BV-2 [23]) [%] | Activity (BV-2 [24]) [%] | Activity (BV-2 [25]) [%] | other results |
| --- | --- | --- | --- | --- | --- | --- | --- | --- | --- | --- | --- | --- | --- | --- | --- | --- | --- | --- | --- | --- | --- |
| O=C1COCCN1c1ccc(/N=C/c2cn(CCCn3cc(/C=N/c4ccc(N5CCOCC5=O)cc4)c4ccccc43)c3ccccc23)cc1 | > 100 | Active | Active | inactive | 99.9 | 97.1 | 94.1 | 91.3 | 93.1 | 95.3 | 79.8 | 72.4 | 67.6 | 61.4 | 107.9186 | 102.1493 | 90.26 | 80.53 | 126.5089 | 111.7925 | inhibition at 10 µM (BV-2 [5]): 36.8%; inhibition at 20 µM (BV-2 [6]): 43.6%; inhibition at 10 µM (BV-2 [7]): 13.8%; inhibition at 20 µM (BV-2 [8]): 23.8%; inhibition in vivo at 10 mg/kg (Mus musculus [9]): 65.5% |
| Cc1ccc(S(=O)(=O)n2cc(/C=N\c3ccc(N4CCOCC4=O)cc3)c3ccccc32)cc1 | > 100 | Active | Active | inactive | 90.9 | 92.1 | 89.1 | 86.4 | 71 | 56.7 | 58.1 | 56 | 57.8 | 57.4 | 108.5973 | 108.2579 | 90.58 | 70.48 | 101.2128 | 94.84 | inhibition at 10 µM (BV-2 [5]): 36.5%; inhibition at 20 µM (BV-2 [6]): 50.6%; inhibition at 10 µM (BV-2 [7]): 31%; inhibition at 20 µM (BV-2 [8]): 35.4%; inhibition (Mus musculus [26]): Active; inhibition [27]: Active; Activity (BV-2 [28]): 95.906%; Activity (BV-2 [29]): 96.245% |
| O=C1COCCN1c1ccc(/N=C\c2cn(C(=O)c3ccccc3)c3ccccc23)cc1 | > 100 | Active | Active | inactive | 104 | 109 | 87.3 | 88.6 | 86.6 | 85.1 | 72.6 | 57.5 | 58.4 | 52.9 | 97.74 | 98.08 | 199.2439 | 122.9276 | 258.2615 | 185.4729 |  |
| O=C1COCCN1c1ccc(/N=C\c2c[nH]c3ccccc23)cc1 | > 100 | Active | Active | inactive | 104 | 105 | 101 | 98.5 | 100 | 104 | 105 | 90.8 | 97.8 | 101 | 104.5249 | 104.8643 | 66.71 | 56.03 | 91.1848 | 89.05 | inhibition at 10 µM (BV-2 [5]): 53.3%; inhibition at 20 µM (BV-2 [6]): 60.8%; inhibition at 10 µM (BV-2 [7]): 37.9%; inhibition at 20 µM (BV-2 [8]): 39.3%; inhibition (Mus musculus [26]): Active; inhibition [27]: Active; inhibition (BV-2 [30]): Active; inhibition (BV-2 [31]): Active; Activity (BV-2 [28]): 96.273%; Activity (BV-2 [29]): 94.929% |
| O=C1COCCN1c1ccc(/N=C\c2cn(Cc3ccccc3)c3ccccc23)cc1 | > 100 | Active | Active | inactive | 86.6 | 89.3 | 84 | 91.3 | 95.7 | 87.8 | 69.5 | 65 | 58.7 | 56.2 | 129.638 | 103.8462 | 217.4584 | 183.8555 | 265.8219 | 181.9833 |  |
